Experimental data published in the NIST ThermoML archive (doi:10.1016/j.jct.2015.03.023).
Values joined by “and” are separate entries in the source; they are usually repeats but may differ in a detail not shown here. Identical values can stand only once.

Columns and labels:
[1] = refractive index (Na D-line) (dimensionless); xn = mol fraction of the nth substance listed; settings: 101.22 kPa, Liquid, Standard Abbe refractometry
[2] = refractive index (Na D-line) (dimensionless); settings: 101.33 kPa, Liquid, Standard Abbe refractometry
[3] = Liquid; for speed of sound / mass density: 101.33 kPa; for speed of sound: Sing-around technique in a fixed-path interferometer; for mass density: Vibrating tube method; for vapor or sublimation pressure: Ebulliometric method (Recirculating still)

CCCCO [butan-1-ol] + CCCCn1cc[n+](C)c1.[I-]
[1], x2 = 0
Settings	refractive index
293.15 K	1.3992
298.15 K	1.3973
308.15 K	1.3932

CCCCn1cc[n+](C)c1.[I-] [1-butyl-3-methylimidazolium iodide]
Settings	mass density, 293.15 K [kg/m3]	mass density, 298.15 K [kg/m3]	mass density, 308.15 K [kg/m3]	refractive index, 293.15 K	refractive index, 298.15 K	refractive index, 308.15 K	speed of sound, 293.15 K [m/s]	speed of sound, 298.15 K [m/s]	speed of sound, 308.15 K [m/s]
[2]	–	–	–	1.5825	1.581	1.5781	–	–	–
[3]	1483.5	1479.6	1471.7	–	–	–	1508.1	1497.5	1473.3

CCCCO [butan-1-ol]
Settings	mass density, [3] [kg/m3]	refractive index, [2]	speed of sound, [3] [m/s]	vapor or sublimation pressure, [3] [kPa]
293.15 K	809.8	1.3992 and 1.3993	1256.3	–
298.15 K	805.9	1.3973	1239.5	–
308.15 K	798.2	1.3932	1205.9	–
353.15 K	–	–	–	21.19
363.15 K	–	–	–	33.8
373.15 K	–	–	–	51.73

CCCCn1cc[n+](C)c1.[I-] [1-butyl-3-methylimidazolium iodide] + CCCCO
refractive index, [1]
Settings	x1 = 0.108	x1 = 0.171	x1 = 0.311	x1 = 0.381	x1 = 0.51	x1 = 0.574	x1 = 0.623	x1 = 0.802	x1 = 0.85	x1 = 1
293.15 K	–	–	1.4864	1.5007	1.5237	1.5339	1.541	1.5634	1.5686	1.5825
298.15 K	1.4332	1.4508	1.4848	1.4991	1.5221	1.5322	1.5393	1.5618	1.567	1.581
308.15 K	1.4294	1.4472	1.4815	1.4958	1.5189	1.5289	1.5361	1.5587	1.5639	1.5781
